Test results published in patent US20190388510A1, “GLUCAGON-T3 CONJUGATES” (priority 2016, published 2019).

Assays:
Type in all cases: in vivo, mouse
DIO mice [1] = test: Cardiac function and histology in DIO mice (echocardiography)
Procedure: After chronic treatment, HFHCD-fed or HFHSD-fed C57B16/j male mice (age) were sacrificed with CO2, body weight as well as heart weights and tibia length was taken during necropsy. Livers and whole hearts were embedded in paraffin using a vacuum infiltration processor TissueTEK VIP (Sakura). 3 μm thick slides were cut using a HMS35 rotatory microtome (Zeiss) and H & E staining was performed. For H & E staining, rehydration was done in a decreasing ethanol series, rinsing with tapwater, 2 min Mayers acid Hemalum, bluing in tapwater followed by lmin EosinY (both BioOptica). Dehydration was performed in increasing ethanol series, mounting with Pertex® (Medite GmbH) and coverslips (CarlRoth Chemicals). The slides were evaluated independently using a brightfield microscope (Axioplan, Zeiss). Photos were taken using the Hamamatsu-Nanozoomer HT2.0 in 1.25×, 5×. 20× and 40× magnification. The hepatic steatosis score is defined as the unweighted sum of the three individual scores for steatosis, lobular inflammation and ballooning degeneration. Steatosis is graded by the presence of fat vacuoles in liver cells according to the percentage of affected tissue (0: <5%; 1: 5-33%; 2: 33-66%; 3: >66%). Lobular inflammation is scored by overall assessment of inflammatory foci per 200× field (0: no foci; 1: <2 foci; 2: 2-4 foci; 3: >4 foci). The individual score for ballooning degeneration ranges from 0 (none), 1 (few cells) to 2 (many cells). Total scores range from 0 to 8 with scores <2 considered non-steatosis, 3 considered as borderline steatosis, 4-5 considered onset of steatosis, and >6 considered steatosis. Different to liver and heart, inguinal fat pad samples were embedded in paraffin using Leica embedding machine (EG1150 H) and cut in 5 μm sections using Leica Microtome (RM2255) to perform H&E staining. Samples were stained with hematoxyline for 4 minutes and eosinY for 2 minutes and fixed with Roti®-Histokitt (Carl Roth) before analysing them independently using Microscope Scope A.1 (Zeiss).
For transthoracic echocardiography, a Vevo2100 Imaging System (VisualSonics Inc., Toronto Canada) with a 30 MHz probe was used. All echocardiograms were performed on conscious animals to prevent anesthesia-related impairment of cardiac function as reported previously. Briefly, echocardiograms were obtained in parasternal long and short axis views. For accurate linear measurements of LV internal dimensions (LVID) and […] (LVPW) or septal (IVS) wall thicknesses, M-mode images of the heart in parasternal short-axis view at the level of the papillary muscle were acquired. Qualitative and quantitative measurements were made offline using analytical software (VisualSonics Inc.). Fractional shortening (FS) was calculated as FS %=[(LVIDd−LVIDs)/LVIDd]×100. Ejection fraction (EF) was calculated as EF %=100*((LVvolD−LVvolS)/LVvolD) with LVvol=((7.0/(2.4+LVID)*LVID^3). The corrected LV mass (LV MassCor) was calculated as LV MassCor=0.8(1.053*((LVIDd+LVPWd+IVSd)^3−LVIDd^3)). Heart rate and respiration rate were determined from M-mode tracings, using 3 consecutive intervals.
Gene expression profiling in the liver, iWAT, eWAT, BAT, and heart were performed following treatment of mice according to the treatment paradigms explained in the figure legends for each specific analsysis. For tissue collection, mice were fasted for 4 h and treated with compounds 2 h prior to tissue collection. Gene expression was profiled with quantitative real-time RT-PCR using either TaqMan single probes or with specifically-designed TaqMan low-density array cards. The relative expression of the selected genes was normalized to the reference gene hypoxanthine-guanine phosphoribosyltransferase (Hprt).

DIO mice [2] = test: Glycemic control in DIO mice; conditions: i.p. pyruvate 1.5 g kg-1
Procedure: (§1) Compounds were administered by repeated subcutaneous injections in the middle of the light phase at the indicated doses with the indicated durations. Co-administration of compounds was administered by single formulated injections. Body weights and food intake were measured every day or every other day after the first injection. All studies with wild-type mice were performed with a group size of n=8 or greater using mice on a C57B16j background.
For assessment of glucose, pyruvate, and insulin tolerance during chronic treatment, the challenge tests were performed at least 24 hours after the last administration of compounds. […]
Energy intake, energy expenditure, respiratory exchange ratio, and home-cage activity were assessed using a combined indirect calorimetry system (TSE Systems). O2 consumption and CO2 production were measured every 10 min for a total of up to 120 h (after 24 h of adaptation) to determine the respiratory quotient and energy expenditure after an initial treatment regimen. Food intake was determined continuously for the same time as the indirect calorimetry assessments by integration of scales into the sealed cage environment. Home-cage locomotor activity was determined using a multidimensional infrared light beam system with beams scanning the bottom and top levels of the cage, and activity being expressed as beam breaks. […]

[3] = tested on: diet-induced obese (DIO) mice
From the text: For studies on lipid handling in wildtype mice (Western mice), male C57Bl/6j mice (Jackson Laboratories) were fed a atherogenic Western diet (Research Diets D12079B), which is a high-cholesterol diet (0.21% gm %) with 41% kcal from fat, 43% kcal from carbohydrates, and 17% kcal from protein. For studies on energy metabolism in obese mice (DIO mice), male C57Bl/6j mice (Jackson Laboratories) were fed a diabetogenic diet (Research Diets D12331), which is a high-sucrose diet with 58% kcal from fat 25.5% kcal from carbohydrates, and 16.4% kcal from protein. Both dietary challenges began at 8 weeks of age. HFHSD and HFHCD mice were single- or group-housed on a 12:12-h light-dark cycle at 22° C. with free access to food and water. Mice were maintained under these conditions for a minimum of 16 weeks before initiation of pharmacological studies and were between the ages of 6 months to 12 months old. All injections and tests were performed during the light cycle. Compounds were administered in a vehicle of 1% Tween-80 and 1% DMSO and were given by daily subcutaneous injections at the indicated doses at a volume of 5 μl per g body weight. Mice were randomized and evenly distributed to test groups according to body weight and body composition. If ex vivo molecular biology/histology/biochemistry analyses were performed, the entire group of mice for each treatment was analyzed and scored in a blinded fashion.
as §1
Whole-body composition (fat and lean mass) was measured using nuclear magnetic resonance technology (EchoMRI).
Energy intake, energy expenditure, respiratory exchange ratio, and home-cage activity were assessed using a combined indirect calorimetry system (TSE Systems). O2 consumption and CO2 production were measured every 10 min for a total of up to 120 h (after 24 h of adaptation) to determine the respiratory quotient and energy expenditure after an initial treatment regimen. Food intake was determined continuously for the same time as the indirect calorimetry assessments by integration of scales into the sealed cage environment. Home-cage locomotor activity was determined using a multidimensional infrared light beam system with beams scanning the bottom and top levels of the cage, and activity being expressed as beam breaks.
Blood was collected at the indicated times from tail veins or after euthanasia using EDTA-coated microvette tubes (Sarstedt), immediately chilled on ice, centrifuged at 5,000 g and 4° C., and plasma was stored at −80° C. For […] (FPLC) of cholesterol distribution in different lipoprotein fractions, fresh plasma from each treatment group was pooled (n=6-8) and ran over two Superose 6 HR columns in tandem. Cholesterol levels in the collected fractions were determined by colorimetric assay. Plasma insulin and T3 were quantified by an ELISA assay (Ultrasenstive Mouse Insulin ELISA and Rodent T3 ELISA; Alpco). Plasma FGF21 was quantified by an ELISA assay (Mouse FGF21 ELISA; Millipore). Plasma cholesterol, extracted hepatic cholesterol, triglycerides, ALT, and AST were measured using enzymatic assay kits (Thermo Fisher). Plasma creatinine and blood urea nitrogen were measured using enzymatic assay kits (Abcam). Plasma free fatty acids were measured using enzymatic assay kits (Wako). All assays were performed according to the manufacturers' instructions. […]

SMILES: N[C@@H](Cc1cc(I)c(Oc2ccc(O)c(I)c2)c(I)c1)C(=O)O [T3, 3,5,3′-triiodothryonine]
- heart histology: cell death (DIO mice [1]; histological profiling of the hearts): marked cell death was detectable
- heart histology: thyrotoxic cardiomyopathy (DIO mice [1]; mouse, in vivo): marked features of thyrotoxic cardiomyopathy
- whole heart expression of T3-sensitive genes (Dio2, Ucp2) (DIO mice [1]; mouse, in vivo): directly increased
- whole heart expression of hypertrophic gene markers (Nppa, Nppb) (DIO mice [1]; mouse, in vivo): directly increased
- pyruvate tolerance (hepatic glucose output) (DIO mice [2]): substantially improved
- home cage (ambulatory) activity ([3]; DIO mice on HFHSD): significantly increased
- food intake ([3]; DIO mice on HFHSD, 7 days): increased
- body weight lowering ([3]; DIO mice on HFHSD, equimolar doses, 100 nmol kg-1 daily, 7 days): Neither glucagon nor T3 appreciably lowered body weight
- whole-body energy expenditure ([3]; DIO mice on HFHSD, indirect calorimetry): substantially increased
- circulating levels of T3 ([3]; mouse, in vivo): resulted in an increase
- rectal temperature ([3]; mouse, in vivo): increased rectal temperature
